Assay results: US11951167B2, “Targeted liposomes” (GEORGETOWN UNIVERSITY, priority 2012, dated 2024)
Each block holds one molecule with its values, some of them ahead of it.

Assays:
KMS-11 cells [1] = assay: Cell viability, MEL or scL-MEL combined with scL-p53; assay type: cell-based; conditions: Homo sapiens, scL-p53 DNA dose 0.2 ug/4×10^5 cells in the combination
Protocol: Cells (4×10^5 per tube) were transfected with different scL/MEL complexes containing increasing doses of MEL. The scL-p53 was prepared as previously described (U.S. Pat. No. 7,780,822). The DNA dose used for all transfections was 0.2 ug/4×10^5 cells. […] The IC20 was used to allow detection of an additive or synergistic effect of the two treatments. The KMS-11 cells were transfect with Free (unencapsulated) MEL alone, scL-MEL alone, or the combination of Free (unencapsulated) or scL encapsulated MEL plus scL-p53 (FIG. 37).

KMS-11 cells [2] = assay: Cell viability by Trypan Blue counting, MEL formulations; assay type: cell-based; conditions: Homo sapiens, KMS-11, 48 h
Protocol: The size of the scL-MEL nanocomplex was 45 and 57 nm, respectively.
For these in vitro cell survival studies, the human multiple myeloma cell line KMS-11 was used. These are non-adherent cells and grow in suspension. 4×10^5 cells in 2.6 ml of serum free media were incubated in a sterile 50 ml centrifuge tube with 400 ul of the scL-MEL (at either ratio) or unencapsulated MEL for one hour. Following this incubation, the medium was supplemented with fetal bovine serum to a final concentration of 10% (0.3 ml/tube). After incubation for an additional 47 h, cell viability was determined by Trypan Blue counting of the cells. To accomplish this, one part trypan blue solution is mixed with 1 part cell suspension (1:1 dilution) in a 2 mL eppendorf tube (e.g. 200 μL trypan blue is mixed with 200 μL cell suspension). Using a hemacytometer and a microscope the number of viable cells (unstained) and dead cells (stained) are counted. The average number of cells per 0.1 mm^3 is calculated and the number of cells per mL determined. The percent of viable cells is calculated as follows: Viable Cells %=(Number of viable cells/Number of Cells)*100
This complex was subsequently lyophilized and the samples stored in a desiccator at 2-8° C. After one week of storage the lyophilized scL-Mel complex was reconstituted with endotoxin free water and used to transfect KMS-11 cells as described above. […]

HT-29 cells = assay: XTT cell viability, IH formulations; assay type: cell-based; conditions: Homo sapiens, 24 h
Protocol: (§1) After 24 hours, the media was replaced with serum-free medium, overlaid with 100 μL of increasing concentrations of either scL-IH nanocomplex, prepared as described above in Example 26, unliganded nanocomplex (L-IH), free IH or LipA only in serum-free medium. The cells were, incubated for 5 hours and then supplemented with FBS. […] The IC50 was interpolated from the graph of the log of drug concentration versus the fraction of surviving cells.

HT-29 xenograft tumors = assay: Anti-tumor efficacy in subcutaneous colon xenografts; assay type: in vivo, athymic nude mice
Protocol: In our initial in vivo experiment, we assessed the anti-tumor efficacy of various molar ratios of liposome to IH. Tumors of human colon tumor cell line HT-29 were induced in female athymic nude mice (5-10 animals/group) by the subcutaneous injection of 3.12×10^5 cells/site/mouse suspended in Matrigel® collagen basement solution. When the tumors reached ˜100 mm^3 treatment was initiated. […] Groups of animals were also treated with Free IH, scL without IH, the nanocomplex without the targeting moiety (Lip-IH), as well as a group of untreated mice. The mice were IV injected twice weekly to a total of 15 injections. […] Thus, in the remainder of the studies the optimal ratio of 1:1 (Liposome:IH) was used in preparation of the scL-IH nanocomplex. […] Here also the mice received a total of 15 intravenous injections.

Hep G2 cells = assay: XTT cell viability, IH formulations; assay type: cell-based, human
Protocol: as §1

PANC-1 cells = assay: XTT cell viability, IH formulations; assay type: cell-based, human
Protocol: as §1

topoisomerase I = target: T1, topoisomerase I (Homo sapiens, UniProt P11387); conditions: cited from earlier work
T1 sequence (P11387 1-765): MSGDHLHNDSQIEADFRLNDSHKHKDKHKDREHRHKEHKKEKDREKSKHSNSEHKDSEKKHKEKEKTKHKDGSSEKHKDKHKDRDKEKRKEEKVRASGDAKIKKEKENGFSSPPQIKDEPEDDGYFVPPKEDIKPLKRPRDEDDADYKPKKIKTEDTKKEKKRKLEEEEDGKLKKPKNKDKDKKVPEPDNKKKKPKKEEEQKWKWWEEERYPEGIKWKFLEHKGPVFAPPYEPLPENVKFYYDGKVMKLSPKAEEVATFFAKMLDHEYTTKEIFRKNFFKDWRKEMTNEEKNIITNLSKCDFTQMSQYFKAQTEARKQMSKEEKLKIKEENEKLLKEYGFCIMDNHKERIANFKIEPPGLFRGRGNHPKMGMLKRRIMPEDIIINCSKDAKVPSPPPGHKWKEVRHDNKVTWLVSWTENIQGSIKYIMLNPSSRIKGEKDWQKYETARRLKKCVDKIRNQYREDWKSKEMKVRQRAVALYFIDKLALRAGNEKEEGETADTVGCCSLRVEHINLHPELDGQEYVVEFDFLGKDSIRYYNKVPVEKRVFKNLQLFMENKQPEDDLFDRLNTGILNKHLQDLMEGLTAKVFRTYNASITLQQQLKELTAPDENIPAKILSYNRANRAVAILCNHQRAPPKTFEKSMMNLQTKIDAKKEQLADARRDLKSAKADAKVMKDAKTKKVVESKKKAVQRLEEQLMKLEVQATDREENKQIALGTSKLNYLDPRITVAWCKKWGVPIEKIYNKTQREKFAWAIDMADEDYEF

SMILES: N[C@@H](Cc1ccc(N(CCCl)CCCl)cc1)C(=O)O [MEL, melphalan]
IC50 (KMS-11 cells [1]): 10.9 µM | IC50 (KMS-11 cells [2]): 17.6 µM

IC50 (HT-29 cells): > 10 µM
SMILES: CCc1c2c(nc3ccc(OC(=O)N4CCC(N5CCCCC5)CC4)cc13)-c1cc3c(c(=O)n1C2)COC(=O)[C@]3(O)CC [IH, Irinotecan]
tumor growth (HT-29 xenograft tumors; first experiment, IH 10 mg/kg i.v. twice weekly, 15 injections, Liposome:IH 1:1 for the complex): minimal effect on tumor growth | tumor growth (HT-29 xenograft tumors; second experiment (fresh vs lyophilized), IH 10 mg/kg, Liposome:IH 1:1, 15 injections): only minimal effect | cell kill at the low doses tested (Hep G2 cells): no effect | cell kill at the low doses tested (PANC-1 cells): no effect

SMILES: CCc1c2c(nc3ccc(O)cc13)-c1cc3c(c(=O)n1C2)COC(=O)[C@]3(O)CC [SN-38, 7-ethyl-10-hydroxy-camptothecin]
potency relative to parent compound irinotecan (topoisomerase I): One thousand-fold more potent
